Assay results reported in patent EP1832576A1, “4-Biarylyl-1-phenolyzetidin-2-ones” (Microbia Inc., priority 2003, dated 2005).

Test system: cholesterol absorption from the intestine
Experiment: In Vivo Assay of Hypolipidemic Agents using the Rat Cholesterol Absorption Model
Parameters: species or system Female Sprague-Dawley rats
Conditions: po, 1 mg/kg, 3H levels in serum three hours after 3H-cholesterol, versus vehicle only control
Method: In Vivo Assay of Hypolipidemic Agents using the Rat Cholesterol Absorption Model. This model is based on models described by Burnett et al (2002), Bioorg. Med. Chem. Lett. 2002 Feb 11;12(3):315-8 and J. Lipid Res. 1999 Oct;40(10):1747-57. Female Sprague-Dawley rats weighing 150-250g are separated into […] and fasted overnight. The animals (4-6/group) are dosed perorally with 300µL test compounds in olive oil or suitable vehicle. Thirty minutes later, 3-5 microCuries ^3H-cholesterol per rat are delivered perorally in 300 µL olive oil. After three hours, 200 µL serum is collected, vortexed with scintillation fluid, and measured for radioactivity in a scintillation counter. Percent inhibition is defined as 100*(1-Ctest/Cctrl), where Ctest and Cctrl refer to ^3H levels in serum for the test compound and for the vehicle only control, respectively. Percent inhibition values are reported for a fixed dose. The ED50 is the dose at which the half-maximal effect on serum ^3H levels is observed for a given test compound.
Representative compounds of the invention were tested in the Rat Cholesterol Absorption model above.

Compound	inhibition at 1 mg/kg (Table 2, perorally)	inhibition at 1 mg/kg (Table 1, perorally)
O=C1[C@H](CC[C@H](O)c2ccc(F)cc2)[C@@H](c2ccc(-c3cccc(O)c3)cc2O)N1c1ccccc1 [Example 42, (3R,4S)-4-(3,3'-Dihydroxybiphenyl-4-yl)-3-[(3S)-3-(4-fluorophenyl)-3-hydroxypropyl]-1-phenylazetidin-2-one]	87%	
Cc1cc(-c2ccc([C@@H]3[C@@H](CC[C@H](O)c4ccc(F)cc4)C(=O)N3c3ccc(F)cc3)cc2)ccc1F [Example 94, (3R,4S)-4-(4'-fluoro-3'-methylbiphenyl-4-yl)-1-(4-fluorophenyl)-3-[(3S)-3-(4-fluorophenyl)-3-hydroxypropyl]azetidin-2-one]		30%
CCCOc1cccc(-c2ccc([C@@H]3[C@@H](CC[C@H](O)c4ccc(F)cc4)C(=O)N3c3ccc(F)cc3)cc2)c1 [Example 103, (3R,4S)-1-(4-fluorophenyl)-3-[(3S)-3-(4-fluorophenyl)-3-hydroxypropyl]-4-(3'-propoxybiphenyl-4-yl)azetidin-2-one]		21%
O=C1C(CCC(O)c2ccc(F)cc2)C(c2cccc(-c3ccc(O)cc3)c2)N1c1ccc(F)cc1 (stereo not drawn) [Example 46]	30%	
CN(C)S(=O)(=O)c1ccc(-c2ccc([C@@H]3[C@@H](CC[C@H](O)c4ccc(F)cc4)C(=O)N3c3ccc(F)cc3)cc2)cc1 [Example 15, 4'-{(2S,3R)-1-(4-fluorophenyl)-3-[(3S)-3-(4-fluorophenyl)-3-hydroxypropyl]-4-oxoazetidin-2-yl}-biphenyl-N,N-dimethylbiphenyl-4-sulfonamide]		8%
COc1ccc(-c2ccc([C@@H]3[C@@H](CC[C@H](O)c4ccc(F)cc4)C(=O)N3c3ccc(F)cc3)cc2)c(OC)c1 [Example 97, (3R,4S)-4-(2',4'-dimethoxybiphenyl-4-yl)-1-(4-fluorophenyl)-3-[(3S)-3-(4-fluorophenyl)-3-hydroxypropyl]azetidin-2-one]		40%
O=C1[C@H](CC[C@H](O)c2ccc(F)cc2)[C@@H](c2ccc(-c3ccc4ccccc4c3)cc2)N1c1ccc(F)cc1 [Example 91, (3R,4S)-1-(4-fluorophenyl)-3-[(3S)-3-(4-fluorophenyl)-3-hydroxypropyl]-4-[4-(2-naphthyl)phenyl]azetidin-2-one]		56%
COc1ccc(C=O)c(-c2ccc([C@@H]3[C@@H](CC[C@H](O)c4ccc(F)cc4)C(=O)N3c3ccc(F)cc3)cc2)c1 [Example 85, 4'-{(2S,3R)-1-(4-fluorophenyl)-3-[(3S)-3-(4-fluorophenyl)-3-hydroxypropyl]-4-oxoazetidin-2-yl}-5-methoxybiphenyl-2-carbaldehyde]		15%
COc1cccc(-c2ccc([C@@H]3[C@@H](CC[C@H](O)c4ccc(F)cc4)C(=O)N3c3ccc(F)cc3)cc2)c1OC [Example 11, (3R,4S)-4-(2',3'-dimethoxybiphenyl-4-yl)-1-(4-fluorophenyl)-3-[(3S)-3-(4-fluorophenyl)-3-hydroxypropyl]azetidin-2-one]		28%
O=C1[C@H](CC[C@H](O)c2ccc(F)cc2)[C@@H](c2ccc(-c3cccc([C@@H]4O[C@H](CO)[C@@H](O)[C@H](O)[C@H]4O)c3)cc2)N1c1ccccc1 [Example 64, (1S)-1,5-anhydro-1-(4'-{(2S,3R)-3-[(3S)-3-(4-fluorophenyl)-3-hydroxypropyl]-4-oxo-1-phenylazetidin-2-yl}biphenyl-3-yl)-D-glucitol]	67%	
O=C1[C@H](CC[C@H](O)c2ccc(F)cc2)[C@@H](c2ccc(-c3ccc(O)cc3O)cc2)N1c1ccc(F)cc1 [Example 108, (3R,4S)-4-(2',4'-dihydroxybiphenyl-4-yl)-1-(4-fluorophenyl)-3-[(3S)-3-(4-fluorophenyl)-3-hydroxypropyl]azetidin-2-one]		69%
O=C1[C@H](CC[C@H](O)c2ccc(F)cc2)[C@@H](c2ccc(-c3ccccc3O)cc2)N1c1ccc(F)cc1 [Example 7, (3R,4S)-1-(4-fluorophenyl)-3-[(3S)-3-(4-fluorophenyl)-3-hydroxypropyl]-4-(2'-hydroxybiphenyl-4-yl)azetidin-2-one]		30%
COc1ccc(-c2ccc([C@@H]3[C@@H](CC[C@H](O)c4ccc(F)cc4)C(=O)N3c3ccc(F)cc3)cc2)cc1OC [Example 81, (3R,4S)-4-(3',4'-dimethoxybiphenyl-4-yl)-1-(4-fluorophenyl)-3-[(3 S)-3-(4-fluorophenyl)-3-hydroxypropyl]azetidin-2-one]		17%
O=C1[C@H](CC[C@H](O)c2ccc(F)cc2)[C@@H](c2ccc(-c3cccc(O)c3)cc2)N1c1ccc(-c2ccccc2)cc1 [Example 124, (3R,4S)-1-biphenyl-4-yl-3-[(3S)-3-(4-fluorophenyl)-3-hydroxypropyl]-4-(3'-hydroxybiphenyl-4-yl)azetidin-2-one]	48%	
COc1cc(-c2ccc([C@@H]3[C@@H](CC[C@H](O)c4ccc(F)cc4)C(=O)N3c3ccc(F)cc3)cc2)cc(OC)c1OC [Example 9, (3R,4S)-1-(4-fluorophenyl)-3-[(3S)-3-(4-fluorophenyl)-3-hydroxypropyl]-4-(3',4',5'-trimethoxybiphenyl-4-yl)azetidin-2-one]		40%
CS(=O)(=O)c1ccc(-c2ccc([C@@H]3[C@@H](CC[C@H](O)c4ccc(F)cc4)C(=O)N3c3ccc(F)cc3)cc2)cc1 [Example 8, (3R,4S)-1-(4-fluorophenyl)-3-[(3S)-3-(4-fluorophenyl)-3-hydroxypropyl]-4-[4'-(methylsulfonyl)biphenyl-4-yl]azetidin-2-one]		53%
O=C1[C@H](CC[C@H](O)c2ccc(F)cc2)[C@@H](c2ccc(-c3cc(O)cc(O)c3)cc2)N1c1ccc(F)cc1 [Example 114, (3R,4S)-4-(3',5'-dihydroxybiphenyl-4-yl)-1-(4-fluorophenyl)-3-[(3S)-3-(4-fluorophenyl)-3-hydroxypropyl]azetidin-2-one]		72%
O=C1[C@H](CC[C@H](O)c2ccc(F)cc2)[C@@H](c2ccc(-c3cc(O)cc(F)c3)cc2)N1c1ccc(F)cc1 [Example 112, (3R,4S)-4-(3'-fluoro-5'-hydroxybiphenyl-4-yl)-1-(4-fluorophenyl)-3-[(3S)-3-(4-fluorophenyl)-3-hydroxypropyl]azetidin-2-one]		75%
C[N+](C)(C)c1cccc(-c2ccc([C@@H]3[C@@H](CC[C@H](O)c4ccc(F)cc4)C(=O)N3c3ccc(F)cc3)cc2)c1 [Example 120, 4'-{(2S,3R)-1-(4-fluorophenyl)-3-[(3S)-3-(4-fluorophenyl)-3-hydroxypropyl]-4-oxoazetidin-2-yl}-N,N,N-trimethylbiphenyl-3-aminium]		23%
O=C1[C@H](CC[C@H](O)c2ccc(F)cc2)[C@@H](c2ccc(-c3ccc(O)cc3)s2)N1c1ccccc1 [Example 51, (3R,4S)-3-[(3S)-3-(4-Fluorophenyl)-3-hydroxypropyl]-4-[5-(4-hydroxyphenyl)-2-thienyl]-1-phenylazetidin-2-one]	39%	
O=C1[C@H](CC[C@H](O)c2ccc(F)cc2)[C@@H](c2ccc(-c3cccc(O)c3)cc2)N1c1ccccc1 [Example 57, (3R,4S)-3-[(3S)-3-(4-Fluorophenyl)-3-hydroxypropyl]-4-(3'-hydroxybiphenyl-4-yl)-1-phenylazetidin-2-one]	73%	
C=Cc1ccc(-c2ccc([C@@H]3[C@@H](CC[C@H](O)c4ccc(F)cc4)C(=O)N3c3ccc(F)cc3)cc2)cc1 [Example 84, (3R,4S)-1-(4-fluorophenyl)-3-[(3S)-3-(4-fluorophenyl)-3-hydroxypropyl]-4-(4'-vinylbiphenyl-4-yl)azetidin-2-one]		51%
COc1cc(OC)cc(-c2ccc([C@@H]3[C@@H](CC[C@H](O)c4ccc(F)cc4)C(=O)N3c3ccc(F)cc3)cc2)c1 [Example 107, (3R,4S)-4-(3',5'-dimethoxybiphenyl-4-yl)-1-(4-fluorophenyl)-3-[(3S)-3-(4-fluorophenyl)-3-hydroxypropyl]azetidin-2-one]		49%
Cc1cc(C)cc(-c2ccc([C@@H]3[C@@H](CC[C@H](O)c4ccc(F)cc4)C(=O)N3c3ccc(F)cc3)cc2)c1 [Example 90, (3R,4S)-4-(3',5'-dimethylbiphenyl-4-yl)-1-(4-fluorophenyl)-3-[(3S)-3-(4-fluorophenyl)-3-hydroxypropyl]azetidin-2-one]		27%
O=C(O)Cc1ccc(-c2ccc([C@@H]3[C@@H](CC[C@H](O)c4ccc(F)cc4)C(=O)N3c3ccc(F)cc3)cc2)cc1 [Example 88, (4'-{(2S,3R)-1-(4-fluorophenyl)-3-[(3S)-3-(4-fluorophenyl)-3-hydroxypropyl]-4-oxoazetidin-2-yl}biphenyl-4-yl)acetic acid]		30%
Cc1ccccc1-c1ccc([C@@H]2[C@@H](CC[C@H](O)c3ccc(F)cc3)C(=O)N2c2ccc(F)cc2)cc1 [Example 98, (3R,4S)-1-(4-fluorophenyl)-3-[(3S)-3-(4-fluorophenyl).3-hydroxypropyl]-4-(2'-methylbiphenyl-4-yl)azetidin-2-one]		7%
O=C1[C@H](CC[C@H](O)c2ccc(F)cc2)[C@@H](c2ccc(-c3cccc([C@H](O)[C@H]4OC(O)[C@H](O)[C@@H](O)[C@@H]4O)c3)cc2O)N1c1ccccc1 (stereo partly drawn) [Example 73, (6S)-6-C-(4'-{(2S,3R)-3-[(3S)-3-(4-Fluorophenyl)-3-hydroxypropyl]-4-oxo-1-phenylazetidin-2-yl}-3'-hydroxybiphenyl-3-yl)-D-glucopyranose]	59%	
